Test results: publication PMC8296573, “Synthesis and Biological Evaluation of Fingolimod Derivatives as Antibacterial Agents” (ACS Omega, 2021)
Values after ≈ are worked out from the molar mass of the structure shown. Where two headings read alike, the source gives them in different places.

Assays:
S. aureus ATCC 25923 [1] = assay: Antibacterial activity, pre-exposure (planktonic cells and biofilm formation); type: cell-based, Staphylococcus aureus; conditions: for MIC / inhibition at 5 µM / inhibition at 10 µM / inhibition at 15 µM / inhibition at 25 µM: Staphylococcus aureus, ATCC25923; for inhibition at 5 µM / inhibition at 10 µM / inhibition at 15 µM / inhibition at 25 µM / Average inhibition %, biofilms viability / Average inhibition %, planktonic cells viability: pre-exposure, ± SD
Outline: (§1)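 Growth prevention was tested by adding compounds together with the inoculum. Plates were incubated 18 h at 37 °C. Viability was read by resazurin fluorescence and biomass by crystal violet absorbance at 595 nm.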

S. aureus ATCC 25923 [2] = assay: Antibacterial activity, post-exposure on preformed 18-h-old biofilms; type: cell-based, Staphylococcus aureus; conditions: ± SD; for inhibition at 25 µM / inhibition at 50 µM / inhibition at 100 µM / inhibition at 200 µM: Staphylococcus aureus; for inhibition at 25 µM: ATCC25923, 25 µM; for inhibition at 50 µM: ATCC25923, 50 µM; for inhibition at 100 µM: ATCC25923, 100 µM; for inhibition at 200 µM: ATCC25923, 200 µM
Outline: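 Biofilms grown 18 h without compound, medium then replaced and compound added for a further 24 h. Planktonic OD and resazurin (20 μM final) fluorescence (ex 560/em 590 nm) read; washed biofilms stained with 20 μM resazurin 30 min at 37 °C, then ethanol-fixed and crystal violet-stained, absorbance 595 nm.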

A. baumannii NCTC 13423 = assay: Antibacterial activity, pre-exposure; type: cell-based, Acinetobacter baumannii; conditions: for Average inhibition %, biofilms viability / Average inhibition %, planktonic cells viability / inhibition at 10 µM / inhibition at 15 µM / inhibition at 25 µM / inhibition at 50 µM: A. baumannii NCTC 13423, pre-exposure, ± SD; for inhibition at 10 µM / inhibition at 15 µM / inhibition at 25 µM / inhibition at 50 µM / MIC: Acinetobacter baumannii, NCTC13423
Outline: as §1

P. aeruginosa ATCC 9027 = assay: Antibacterial activity, pre-exposure; type: cell-based, Pseudomonas aeruginosa; conditions: for Average inhibition %, biofilms viability / Average inhibition %, planktonic cells viability / inhibition at 50 µM / inhibition at 100 µM / inhibition at 150 µM / inhibition at 200 µM: P. aeruginosa ATCC 9027, pre-exposure, ± SD; for MIC / inhibition at 50 µM / inhibition at 100 µM / inhibition at 150 µM / inhibition at 200 µM: Pseudomonas aeruginosa; for inhibition at 50 µM / inhibition at 100 µM / inhibition at 150 µM / inhibition at 200 µM: ATCC9027
Outline: as §1

[3] = 10 µM, read-out: Average inhibition %, biofilms biomass
[4] = 10 µM, read-out: Average inhibition %, planktonic cells turbidity
[5] = 15 µM, read-out: Average inhibition %, biofilms biomass
[6] = 15 µM, read-out: Average inhibition %, planktonic cells turbidity
[7] = 25 µM, read-out: Average inhibition %, biofilms biomass
[8] = 25 µM, read-out: Average inhibition %, planktonic cells turbidity
[9] = read-out: Average inhibition %, biofilms biomass
[10] = read-out: Average inhibition %, planktonic cells turbidity
[11] = 50 µM, read-out: Average inhibition %, biofilms biomass
[12] = 50 µM, read-out: Average inhibition %, planktonic cells turbidity

## CCCCCCCCCCc1ccc(CCC(N)(CO)CO)nc1 [Compound 62, 2-Amino-2-[2-(5-decylpyridin-2-yl)ethyl]propane-1,3-diol]
S. aureus ATCC 25923 [1]; lowest concentration with no visible growth (>90% inhibition of turbidity and viability of planktonic cells), 18 h, read-out: MIC S. aureus ATCC 25923
  MIC: 15 µM (≈ 5.05 µg/mL)
S. aureus ATCC 25923 [1]; 5 µM, read-out: Average inhibition %, biofilms biomass
  inhibition at 5 µM: 34.5 ± 10.1%
S. aureus ATCC 25923 [1]; 5 µM, read-out: Average inhibition %, planktonic cells turbidity
  inhibition at 5 µM: 9.5 ± 10.5%
S. aureus ATCC 25923 [1]; [3]
  inhibition at 10 µM: 46 ± 8%
S. aureus ATCC 25923 [1]; [4]
  inhibition at 10 µM: 15.6 ± 7.5%
S. aureus ATCC 25923 [1]; [5]
  inhibition at 15 µM: 91.8 ± 5.5%
S. aureus ATCC 25923 [1]; [6]
  inhibition at 15 µM: 85.8 ± 12.4%
S. aureus ATCC 25923 [1]; [7]
  inhibition at 25 µM: 94.8 ± 1.6%
S. aureus ATCC 25923 [1]; [8]
  inhibition at 25 µM: 99.1 ± 0.7%
S. aureus ATCC 25923 [1]; read-out: MIC (S. aureus)
  MIC: 15 µM (≈ 5.05 µg/mL)
S. aureus ATCC 25923 [1]; lowest concentration with no visible growth (>90% inhibition of turbidity and viability of planktonic cells), 18 h
  MIC S. aureus ATCC 25923: same MIC as fingolimod
S. aureus ATCC 25923 [1]; 5 µM
  Average inhibition %, biofilms viability: 23.3 ± 7.1%
  Average inhibition %, planktonic cells viability: 0 ± 0%
S. aureus ATCC 25923 [1]; 10 µM
  Average inhibition %, biofilms viability: 35.7 ± 5.8%
  Average inhibition %, planktonic cells viability: 0 ± 0%
S. aureus ATCC 25923 [1]; 15 µM
  Average inhibition %, biofilms viability: 95.2 ± 3.8%
  Average inhibition %, planktonic cells viability: 92.4 ± 6.5%
S. aureus ATCC 25923 [1]; 25 µM
  Average inhibition %, biofilms viability: 99.6 ± 0.2%
  Average inhibition %, planktonic cells viability: 100 ± 0.1%
S. aureus ATCC 25923 [2]; 25 µM
  Average inhibition %, biofilms viability: 12.6 ± 12.7%
  Average inhibition %, planktonic cells viability: 0 ± 0%
S. aureus ATCC 25923 [2]; 50 µM
  Average inhibition %, biofilms viability: 37.2 ± 4.9%
  Average inhibition %, planktonic cells viability: 0 ± 0%
S. aureus ATCC 25923 [2]; 100 µM
  Average inhibition %, biofilms viability: 56.4 ± 12%
  Average inhibition %, planktonic cells viability: 55.8 ± 42.1%
S. aureus ATCC 25923 [2]; 200 µM
  Average inhibition %, biofilms viability: 99.3 ± 0.3%
  Average inhibition %, planktonic cells viability: 100.1 ± 0.1%
S. aureus ATCC 25923 [2]; [9]
  inhibition at 25 µM: 43.1 ± 11%
  inhibition at 50 µM: 63.9 ± 10.9%
  inhibition at 100 µM: 76.2 ± 5.6%
  inhibition at 200 µM: 80.8 ± 3.8%
S. aureus ATCC 25923 [2]; [10]
  inhibition at 25 µM: 15.7 ± 12.5%
  inhibition at 50 µM: 16.7 ± 24.2%
  inhibition at 100 µM: 57.6 ± 29.3%
  inhibition at 200 µM: 89.9 ± 1.7%
A. baumannii NCTC 13423; 10 µM
  Average inhibition %, biofilms viability: 40 ± 33.9%
  Average inhibition %, planktonic cells viability: 37.7 ± 25.3%
A. baumannii NCTC 13423; 15 µM
  Average inhibition %, biofilms viability: 100.5 ± 1%
  Average inhibition %, planktonic cells viability: 99.8 ± 0.4%
A. baumannii NCTC 13423; 25 µM
  Average inhibition %, biofilms viability: 101.2 ± 1.3%
  Average inhibition %, planktonic cells viability: 99.7 ± 0.3%
A. baumannii NCTC 13423; 50 µM
  Average inhibition %, biofilms viability: 101.3 ± 1.2%
  Average inhibition %, planktonic cells viability: 99.7 ± 0.2%
A. baumannii NCTC 13423; [3]
  inhibition at 10 µM: 21.3 ± 18.9%
A. baumannii NCTC 13423; [4]
  inhibition at 10 µM: 46 ± 39.6%
A. baumannii NCTC 13423; [5]
  inhibition at 15 µM: 85.4 ± 2%
A. baumannii NCTC 13423; [6]
  inhibition at 15 µM: 99.3 ± 0.9%
A. baumannii NCTC 13423; [7]
  inhibition at 25 µM: 83.1 ± 3%
A. baumannii NCTC 13423; [8]
  inhibition at 25 µM: 99.2 ± 0.9%
A. baumannii NCTC 13423; [11]
  inhibition at 50 µM: 79 ± 9.4%
A. baumannii NCTC 13423; [12]
  inhibition at 50 µM: 98.8 ± 0.9%
A. baumannii NCTC 13423; pre-exposure, Inactive = no activity up to 50 μM, > = some inhibition but no MIC reached, read-out: MIC A. baumannii NCTC 13423
  MIC: 15 µM (≈ 5.05 µg/mL)
A. baumannii NCTC 13423; supplementary molecular formula strings sheet, read-out: MIC (A. baumannii)
  MIC: 15 µM (≈ 5.05 µg/mL)
P. aeruginosa ATCC 9027; 50 µM
  Average inhibition %, biofilms viability: 13.5 ± 11.7%
  Average inhibition %, planktonic cells viability: 18.7 ± 18.1%
P. aeruginosa ATCC 9027; 100 µM
  Average inhibition %, biofilms viability: 13.6 ± 3.2%
  Average inhibition %, planktonic cells viability: 39.6 ± 45.8%
P. aeruginosa ATCC 9027; 150 µM
  Average inhibition %, biofilms viability: 27.7 ± 14.8%
  Average inhibition %, planktonic cells viability: 76.3 ± 19.2%
P. aeruginosa ATCC 9027; 200 µM
  Average inhibition %, biofilms viability: 61.8 ± 34.8%
  Average inhibition %, planktonic cells viability: 94.7 ± 4.6%
P. aeruginosa ATCC 9027; ATCC9027, pre-exposure, Inactive = no activity up to 200 μM, > = some inhibition but no MIC reached, read-out: MIC P. aeruginosa ATCC 9027
  MIC: > 200 µM
P. aeruginosa ATCC 9027; ATCC9027, supplementary molecular formula strings sheet, read-out: MIC (P. aeruginosa)
  MIC: > 200 µM
P. aeruginosa ATCC 9027; [11]
  inhibition at 50 µM: 19.7 ± 9.7%
P. aeruginosa ATCC 9027; [12]
  inhibition at 50 µM: 35.6 ± 9.3%
P. aeruginosa ATCC 9027; 100 µM, read-out: Average inhibition %, biofilms biomass
  inhibition at 100 µM: 18.6 ± 19.2%
P. aeruginosa ATCC 9027; 100 µM, read-out: Average inhibition %, planktonic cells turbidity
  inhibition at 100 µM: 58 ± 23%
P. aeruginosa ATCC 9027; 150 µM, read-out: Average inhibition %, biofilms biomass
  inhibition at 150 µM: 21 ± 3.9%
P. aeruginosa ATCC 9027; 150 µM, read-out: Average inhibition %, planktonic cells turbidity
  inhibition at 150 µM: 84.5 ± 4.1%
P. aeruginosa ATCC 9027; 200 µM, read-out: Average inhibition %, biofilms biomass
  inhibition at 200 µM: 38.5 ± 47.1%
P. aeruginosa ATCC 9027; 200 µM, read-out: Average inhibition %, planktonic cells turbidity
  inhibition at 200 µM: 92.5 ± 5%
